{"source": "patent US6800649B1", "about": "“Method for inhibiting c-jun expression using JAK-3 inhibitors” (Parker Hughes Institute, priority 1998, dated 2004)", "key": {"[1]": {"system": "c-jun expression in DT-40 chicken lymphoma B-cells", "test": "Radiation-induced c-jun mRNA expression by Northern blot", "assay_type": "cell-based", "design": "unit of the concentration uncertain", "details": "DT-40 cells", "description": "FIGS. 1A and 1B. Radiation-induced c-jun activation in wild-type DT-40 lymphoma B-cells. [A]. Dose reponse for induction of c-jun mRNA. DT-40 chicken cells were irradiated at the indicated doses (0, 10, 15, 20 Gy). Total RNA was extracted after a 2 hours or 4 hours post-irradiation time period. RNA ([…]) was loaded on a Northern gel and transferred by capillary blotting to a nylon membrane. The Northern blot was hybridized with a ^32P labeled chicken c-jun probe (top panel) or a chicken GAPDH probe (bottom panel). […] Effect of the PTK inhibitor genistein on induction of c-jun mRNA. Cells were treated with […] of genistein for 24 hours at 37° C. prior to exposure to 20 Gy ionizing radiation. c-jun expression levels were determined as in [A].\nFIG. 5. Effects of a JAK-3 inhibitor on c-jun induction in irradiated DT-40 cells. Cells were treated with the quinazoline derivative 4(3′-Bromo-4′-hydroxyl-phenyl)-amino-6,7-dimethoxyquinazoline ([…]) for 24 hours at 37° C. prior to exposure to 20 Gy ionizing radiation. c-jun expression levels were determined as outlined in FIGS. 1-3. […]\nA 506 basepair (bp) c-jun probe was obtained by polymerase chain reaction (PCR) amplification of chicken genomic DNA. Primer sequences were determined based upon the sequence of chicken c-jun (GenBank accession code CHKJUN). […]"}, "JAK-2": {"target": "T1, JAK-2 (Homo sapiens, UniProt O60674)", "T1 construct": "made in house; host or cells: Sf21 insect cells (baculovirus)", "T1 sequence (O60674 whole entry, species assumed)": "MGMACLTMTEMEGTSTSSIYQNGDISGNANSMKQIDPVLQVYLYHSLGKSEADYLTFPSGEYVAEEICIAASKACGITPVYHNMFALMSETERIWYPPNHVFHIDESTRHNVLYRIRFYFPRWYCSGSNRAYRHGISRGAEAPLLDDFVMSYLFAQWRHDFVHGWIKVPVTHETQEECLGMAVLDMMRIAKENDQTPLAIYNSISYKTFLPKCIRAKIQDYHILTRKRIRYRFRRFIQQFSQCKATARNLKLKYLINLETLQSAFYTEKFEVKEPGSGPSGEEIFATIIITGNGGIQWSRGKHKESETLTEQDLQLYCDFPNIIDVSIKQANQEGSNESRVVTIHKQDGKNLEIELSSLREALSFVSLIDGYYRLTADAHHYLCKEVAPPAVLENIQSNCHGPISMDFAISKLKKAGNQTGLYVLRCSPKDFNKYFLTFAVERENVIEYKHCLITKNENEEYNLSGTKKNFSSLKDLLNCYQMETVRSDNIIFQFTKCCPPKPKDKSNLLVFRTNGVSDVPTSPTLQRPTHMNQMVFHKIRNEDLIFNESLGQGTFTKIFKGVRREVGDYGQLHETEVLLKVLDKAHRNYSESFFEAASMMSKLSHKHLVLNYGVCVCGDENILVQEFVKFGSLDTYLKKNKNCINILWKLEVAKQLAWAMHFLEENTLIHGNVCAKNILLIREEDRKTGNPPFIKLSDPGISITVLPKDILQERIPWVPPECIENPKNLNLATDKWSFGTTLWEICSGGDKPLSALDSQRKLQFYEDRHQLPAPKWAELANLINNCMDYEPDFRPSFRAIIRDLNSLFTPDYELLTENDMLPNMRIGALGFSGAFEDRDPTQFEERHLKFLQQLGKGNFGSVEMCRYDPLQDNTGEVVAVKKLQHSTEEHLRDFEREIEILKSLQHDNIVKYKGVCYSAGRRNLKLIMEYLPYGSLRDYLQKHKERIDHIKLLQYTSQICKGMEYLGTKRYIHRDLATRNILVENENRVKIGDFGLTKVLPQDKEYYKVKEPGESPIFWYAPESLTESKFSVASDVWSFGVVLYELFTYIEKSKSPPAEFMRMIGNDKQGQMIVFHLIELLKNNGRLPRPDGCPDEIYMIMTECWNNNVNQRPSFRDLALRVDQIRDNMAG", "test": "Immune complex hot kinase assay of JAK-2 immunoprecipitated from baculovirus-infected Sf21 cells", "assay_type": "biochemical", "details": "even at 75 μg/ml, 1 hour exposure of immune complexes before kinase assay", "description": "(§1) FIGS. 4B1-B4. JAK-3 Inhibitors. [A]. Structures of JAK-3 inhibitors. [B] Specificity of JAK-3 inhibitors. Sf21 cells infected with baculovirus expression vectors for JAK-1 JAK-2 or JAK-3 were subjected to immunoprecipitation with anti-JAK antibodies. JAK-1 (shown in B.1), JAK-2 (shown in B.2) and JAK-3 (shown in B.3 and B.4 which illustrate results from 2 independent experiments) immune complexes were treated with 1% DMSO (vehicle control=CON), Compound 1, or Compound 2 for 1 hour prior to hot kinase assays, as described (20,22). […] EMSAs of […]-IL-2Rβ cells. Compound 1(100 (g/ml) and Compound 2 (100 (g/ml) inhibited IL-2 triggered JAK-3-dependent STAT activation but not IL-3-triggered JAK-1/JAK-2-dependent STAT activation in 32Dc11-IL-2Rβ cells.\n(§2) After establishing that LYN, BTK, and SYK kinases are not required for radiation-induced c-jun activation, we set out to determine if c-jun activation is functionally linked to the JAK-STAT pathway. To this end, we examined the effects of a JAK-3 inhibitory novel quinazoline derivative on c-jun expression levels in irradiated DT-40 cells. To identify a potent JAK-3 specific inhibitor, the effects of two novel quinazoline derivatives on the enzymatic activity of JAK-1, JAK-2, and JAK-3 were examined using Sf21 cells that were infected with baculovirus expression vectors for these kinases, using standard methods (FIG. 4). […]"}, "[2]": {"system": "IL-2 triggered JAK-3-dependent STAT activation", "test": "EMSA of IL-2 triggered STAT activation in 32Dc11-IL-2Rβ cells", "assay_type": "cell-based", "details": "100 (g/ml, EMSA (FIG. 4C legend))", "description": "as §1\nElectrophoretic Mobility Shift Assays (EMSAs) were performed to examine the effects of both compounds on cytokine-induced STAT activation. Specifically, 32Dc11/IL2Rβ cells (gift from James Ihle, St. Jude Children's Research Hospital) were exposed at 8×10^6/ml in RPMI supplemented with FBS to the JAK-3 inhibitors at a final concentration of 10 μg/ml in 1% DMSO) for 1 hour and subsequently stimulated with IL2 or IL3 as indicated. […]"}, "JAK-1": {"target": "T2, JAK-1 (Homo sapiens, UniProt P23458)", "T2 construct": "made in house; host or cells: Sf21 insect cells (baculovirus)", "T2 sequence (P23458 whole entry, species assumed)": "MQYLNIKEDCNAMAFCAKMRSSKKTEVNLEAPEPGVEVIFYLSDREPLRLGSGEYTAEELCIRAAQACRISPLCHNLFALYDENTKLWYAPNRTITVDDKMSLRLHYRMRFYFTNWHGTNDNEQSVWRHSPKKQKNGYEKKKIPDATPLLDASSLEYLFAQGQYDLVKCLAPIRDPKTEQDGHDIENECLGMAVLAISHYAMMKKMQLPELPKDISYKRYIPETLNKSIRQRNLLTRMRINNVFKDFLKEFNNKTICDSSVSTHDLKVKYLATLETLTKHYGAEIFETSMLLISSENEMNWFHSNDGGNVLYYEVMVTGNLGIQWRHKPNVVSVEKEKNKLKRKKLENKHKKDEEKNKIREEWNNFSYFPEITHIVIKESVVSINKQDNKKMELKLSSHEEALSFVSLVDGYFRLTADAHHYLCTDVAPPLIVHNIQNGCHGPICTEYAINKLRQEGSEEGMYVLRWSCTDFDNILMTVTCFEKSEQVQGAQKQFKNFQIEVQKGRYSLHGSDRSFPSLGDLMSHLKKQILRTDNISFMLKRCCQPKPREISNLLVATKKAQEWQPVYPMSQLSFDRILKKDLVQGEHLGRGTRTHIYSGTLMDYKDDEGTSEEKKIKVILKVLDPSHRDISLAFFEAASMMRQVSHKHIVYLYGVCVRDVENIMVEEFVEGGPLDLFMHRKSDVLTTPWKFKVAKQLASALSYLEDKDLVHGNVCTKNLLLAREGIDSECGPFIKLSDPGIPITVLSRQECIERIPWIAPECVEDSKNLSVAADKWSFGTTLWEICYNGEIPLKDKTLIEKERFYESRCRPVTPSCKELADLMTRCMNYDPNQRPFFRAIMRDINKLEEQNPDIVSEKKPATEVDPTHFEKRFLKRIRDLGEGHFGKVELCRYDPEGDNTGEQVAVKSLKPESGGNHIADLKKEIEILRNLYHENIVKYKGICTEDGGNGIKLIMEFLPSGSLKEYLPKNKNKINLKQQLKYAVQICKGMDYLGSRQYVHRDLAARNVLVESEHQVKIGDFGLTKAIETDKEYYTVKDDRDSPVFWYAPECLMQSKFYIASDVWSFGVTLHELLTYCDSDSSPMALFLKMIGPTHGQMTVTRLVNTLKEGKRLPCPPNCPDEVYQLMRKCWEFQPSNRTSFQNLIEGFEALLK", "test": "Immune complex hot kinase assay of JAK-1 immunoprecipitated from baculovirus-infected Sf21 cells", "assay_type": "biochemical", "details": "even at 75 μg/ml, 1 hour exposure of immune complexes before kinase assay", "description": "as §1, §2"}, "JAK-3": {"target": "T3, JAK-3 (Homo sapiens, UniProt P52333)", "T3 construct": "made in house; host or cells: Sf21 insect cells (baculovirus)", "T3 sequence (P52333 1-1124)": "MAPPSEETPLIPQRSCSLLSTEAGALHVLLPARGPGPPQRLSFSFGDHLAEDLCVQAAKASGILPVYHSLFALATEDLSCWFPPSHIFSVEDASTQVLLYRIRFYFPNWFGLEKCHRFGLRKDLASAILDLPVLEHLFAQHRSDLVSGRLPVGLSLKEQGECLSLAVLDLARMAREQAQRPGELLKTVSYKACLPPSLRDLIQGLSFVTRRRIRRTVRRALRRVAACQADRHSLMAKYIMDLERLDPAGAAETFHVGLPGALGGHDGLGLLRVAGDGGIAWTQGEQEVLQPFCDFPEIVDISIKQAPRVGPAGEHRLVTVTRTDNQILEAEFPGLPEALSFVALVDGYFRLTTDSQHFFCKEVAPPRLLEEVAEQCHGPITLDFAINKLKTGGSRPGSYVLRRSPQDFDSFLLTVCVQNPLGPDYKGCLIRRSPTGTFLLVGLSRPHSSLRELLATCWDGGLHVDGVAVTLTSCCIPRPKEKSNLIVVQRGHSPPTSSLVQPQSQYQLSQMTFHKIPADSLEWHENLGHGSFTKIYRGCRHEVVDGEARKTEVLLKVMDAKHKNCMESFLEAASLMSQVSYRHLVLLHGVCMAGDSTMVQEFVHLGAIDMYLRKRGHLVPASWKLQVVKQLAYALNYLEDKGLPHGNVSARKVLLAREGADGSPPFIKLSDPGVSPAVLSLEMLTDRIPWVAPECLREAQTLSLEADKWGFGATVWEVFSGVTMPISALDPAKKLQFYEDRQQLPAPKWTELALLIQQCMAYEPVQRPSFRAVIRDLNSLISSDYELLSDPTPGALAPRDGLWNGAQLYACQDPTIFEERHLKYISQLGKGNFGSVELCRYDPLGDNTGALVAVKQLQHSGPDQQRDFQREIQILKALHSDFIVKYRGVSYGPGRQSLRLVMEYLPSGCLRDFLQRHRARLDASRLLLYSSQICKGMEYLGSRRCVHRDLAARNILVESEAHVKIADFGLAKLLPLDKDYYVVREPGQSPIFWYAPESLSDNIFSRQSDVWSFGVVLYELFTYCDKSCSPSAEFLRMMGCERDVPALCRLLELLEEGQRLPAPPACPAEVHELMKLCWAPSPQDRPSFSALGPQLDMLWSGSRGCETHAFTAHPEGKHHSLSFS", "test": "Immune complex hot kinase assay of JAK-3 immunoprecipitated from baculovirus-infected Sf21 cells", "assay_type": "biochemical", "details": "10 μg/ml, 1 hour exposure of immune complexes before kinase assay", "description": "as §1, §2"}}}
{"smiles": "O=c1c(-c2ccc(O)cc2)coc2cc(O)cc(O)c12", "note": "[genistein, reference compound]", "values": [{"measurement": "stimulation index (c-jun/GAPDH ratio, irradiated versus non-irradiated cells)", "setting": "[1]; 30 (unit uncertain) for 24 hours at 37° C. before 20 Gy ionizing radiation", "value": 1.1}]}
{"smiles": "COc1cc2ncnc(Nc3ccc(O)c(Br)c3)c2cc1OC", "note": "[Compound 2, 4-(3′-Bromo-4′-hydroxylphenyl)-amino-6,7-dimethoxy-quinazoline]", "values": [{"measurement": "induction of c-jun expression by ionizing radiation in treated cells", "setting": "[1]; 100 (unit uncertain) for 24 hours at 37° C. before 20 Gy ionizing radiation", "value": "failed to induce c-jun expression"}, {"measurement": "inhibition of JAK-2 enzymatic activity", "setting": "JAK-2", "value": "did not inhibit"}, {"measurement": "inhibition of IL-2 triggered JAK-3-dependent STAT activation", "setting": "[2]", "value": "inhibited"}, {"measurement": "inhibition of JAK-1 enzymatic activity", "setting": "JAK-1", "value": "did not inhibit"}, {"measurement": "inhibition of JAK-3 enzymatic activity", "setting": "JAK-3", "value": "inhibited"}]}
{"smiles": "COc1cc2ncnc(Nc3ccc(O)cc3)c2cc1OC", "note": "[Compound 1, 4-(4′-Hydroxylphenyl)-amino-6,7-dimethoxy-quinazoline]", "values": [{"measurement": "inhibition of JAK-2 enzymatic activity", "setting": "JAK-2", "value": "did not inhibit"}, {"measurement": "inhibition of IL-2 triggered JAK-3-dependent STAT activation", "setting": "[2]", "value": "inhibited"}, {"measurement": "inhibition of JAK-1 enzymatic activity", "setting": "JAK-1", "value": "did not inhibit"}, {"measurement": "inhibition of JAK-3 enzymatic activity", "setting": "JAK-3", "value": "inhibited"}]}
